Assay results reported in US9012420B2, “Aptamer for chymase, and use thereof” (Ribomic Inc., priority 2009, dated 2015).
Each block holds one molecule with its values, some of them ahead of it. Oligonucleotides are written 5' to 3', each unit as a sugar letter and its base; * is a phosphorothioate linkage, no mark a phosphodiester; rarer units and linkages stand in square brackets, end groups in braces. Plain capitals give the bases only. r = 2'-OH (RNA); f = 2'-fluoro

What was measured:
[1] = target: T1, chymase (recombinant, manufactured by SIGMA) (Homo sapiens, UniProt P23946); test: Surface plasmon resonance (Biacore T100), chymase immobilized on CM5 chip, nucleic acid injected as analyte; type: binding; set-up: key to Binding activity as determined using Biacore: ++: a sequence that binds to chymase significantly more strongly than the negative control 40N; +: a sequence that binds to chymase equivalently compared with the negative control 40N; key to binding activity using Biacore: ++: significant binding to chymase than SEQ ID NO: 58 which is a negative control; +: similar binding level as SEQ ID NO: 58 which is a negative control; settings: for Binding activity as determined using Biacore: Table 4, about 4000 RU chymase immobilized, nucleic acid 0.3 μM, solution C, compared with 40N; for binding activity using Biacore: same manner as Example 4, compared with SEQ ID NO: 58
T1 construct: purchased SIGMA; host or cells: yeast
T1 sequence (P23946 22-247): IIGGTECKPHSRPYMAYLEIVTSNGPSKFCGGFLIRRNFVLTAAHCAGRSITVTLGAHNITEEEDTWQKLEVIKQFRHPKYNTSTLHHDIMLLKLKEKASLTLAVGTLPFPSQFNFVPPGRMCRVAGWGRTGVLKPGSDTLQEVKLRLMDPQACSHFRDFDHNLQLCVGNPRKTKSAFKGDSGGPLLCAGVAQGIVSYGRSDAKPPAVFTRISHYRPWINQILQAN
Protocol: In another method, chymase is first immobilized onto a sensor chip, the amount immobilized being about 4000 RU. 20 μL of an aptamer solution for analyte, prepared at 0.01 μg/μL, is injected, and the binding of the aptamer to chymase is detected. An RNA containing a random nucleotide sequence of 30 or 40 nucleotides is used as a negative control.
Whether these nucleic acids bind to chymase was determined by the surface plasmon resonance method. Measurements were taken using Biacore T100 (manufactured by GE Healthcare) as described below. About 4000 RU of chymase (recombinant, manufactured by SIGMA) was immobilized on the sensor chip surface of a CM5 chip, using an amine coupling kit. 20 μL of each nucleic acid, prepared at 0.3 μM, as an analyte was injected at a flow rate of 20 μL/min. Solution C was used as a running buffer. The method of evaluation used was the same as Example 1.
All nucleic acids of SEQ ID NO: 58-68 were prepared by chemical synthesis. Whether these nucleic acids are bound to chymase was assessed by surface plasmon resonance method in the same manner as in Example 4. The inhibitory activity on chymase was measured in the same manner as in Example 3.
All nucleic acids of SEQ ID NOs: 73-79, 56(8), 80, 56(10), 81, 56(13)-56(14), 83-87 were prepared by chemical synthesis. Whether these nucleic acids are bound to chymase was assessed by surface plasmon resonance method in the same manner as in Example 4.
All nucleic acids of SEQ ID NO: 88-120, 121, 69, 122, 123, 70-72, 124-131 were prepared by chemical synthesis. Whether these nucleic acids are bound to chymase was assessed by surface plasmon resonance method in the same manner as in Example 4.

[2] = target: T1, chymase (recombinant, manufactured by SIGMA); test: Chymase inhibitory activity using synthetic substrate Suc-Ala-Ala-Pro-Phe-MCA; type: biochemical
How it was run: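 Human recombinant chymase (16.7 nM or 1.67 nM final) preincubated 5 min at 37° C., then added to nucleic acid (0.0027–2 μM serial dilutions) and 100 μM substrate in solution C. AMC fluorescence (ex 380/em 460 nm) followed 5 or 30 min at 37° C.; slope gives initial velocity, inhibition versus no-inhibitor control yields IC50.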

[3] = Table 4, same manner as Example 3, mean value for 2 to 3 measurements
[4] = Table 6, same manner as Example 3, mean value of two measurements
[5] = Table 5, same manner as Example 3, mean value of two measurements
[6] = Table 7, same manner as Example 3, mean value of two measurements
[7] = Table 3, substrate 100 μM, solution C, 37° C., mean value for 2 to 3 measurements

Molecule: 53 (GGGUAACUAUGGUUAGAUAGAGUUAAAAACCAUAGAAGACCC; 2'-fluoro at CU, RNA at AG, backbone not given here) [compound 53]
Binding activity as determined using Biacore [1]: ++
IC50 [2, 3]: 66 ± 24 nM

Molecule: 54 (UAACUAUGGUUAGAUAGAGUUAAAAACCAUAGAAGA; 2'-fluoro at CU, RNA at AG, backbone not given here) [compound 54]
Binding activity as determined using Biacore [1]: ++
IC50 [2, 3]: 51 ± 33 nM

Molecule: 55 (CUAUGGUUAGAUAGAGUUAAAAACCAUAG; 2'-fluoro at CU, RNA at AG, backbone not given here) [compound 55]
Binding activity as determined using Biacore [1]: ++
IC50 [2, 3]: 55 ± 23 nM

Molecule: 56 (GGGUUAGAUAGAGUUAAAAACCC; 2'-fluoro at CU, RNA at AG, backbone not given here) [compound 56]
Binding activity as determined using Biacore [1]: ++
binding activity using Biacore ([1]; Table 6): ++
IC50 [2, 3]: 46 ± 31 nM
IC50 [2, 4]: 27 ± 2 nM

Molecule: 58 (GGGUUGAAGAUAUUAAAGAACCC; 2'-fluoro at CU, RNA at AG, backbone not given here) [compound 58]
binding activity using Biacore ([1]; Table 5): +
IC50 [2, 5]: > 1000 nM

Molecule: 65 (rGrGfCrArGrAfUrArGrArGfUfUrArArArGfCfC) [compound 65]
binding activity using Biacore ([1]; Table 5): ++
IC50 [2, 5]: 56 ± 46 nM

Molecule: 70 (GGGTTAGAUAGAGUUAAAAACCC; chemistry not given here) [compound 70]
binding activity using Biacore ([1]; Table 7): ++
IC50 [2, 6]: 27 ± 4 nM

Molecule: 71 (GGGUUAGAUAGAGTUAAAAACCC; chemistry not given here) [compound 71]
binding activity using Biacore ([1]; Table 7): ++
IC50 [2, 6]: 28 ± 5 nM

Molecule: 72 (GGGTTAGAUAGAGTUAAAAACCC; chemistry not given here) [compound 72]
binding activity using Biacore ([1]; Table 7): ++
IC50 [2, 6]: 20 ± 2 nM

IC50 [2, 7]: 100 to 200 nM
Molecule: CC(C)C[C@H](NC(=O)[C@@H](NC(=O)N[C@@H](Cc1ccccc1)C(=O)O)[C@@H]1CCN=C(N)N1)C(=O)N[C@H](C=O)Cc1ccccc1 [chymostatin, reference compound]

Molecule: GGGU(F)U(F)GAAGAU(F)AU(F)U(F)AAAGAAC(F)C(F)C(F) (GGGUUGAAGAUAUUAAAGAACCC; 2'-fluoro at CU, RNA at AG, backbone not given here) [SEQ ID NO: 58]
IC50 [2, 5]: > 1000 nM
IC50 [2, 4]: > 1000 nM
IC50 [2, 6]: > 1000 nM

B1: 4 (nucleic acid)
chain: rGrGrGrAfCrGrGfUrArGrGrArAfUfUfCrGfUfCfCrAfUfUfCfUrAfCrArGrAfUrArGrArGrAfUrArArArGfUrArGrArAfUfUfUrArAfCrArArArAfCrAfUrArGrArArGrArGfCrGrGfCfCrGfC
modifications: aptamer
IC50 [2, 7]: 49 ± 3 nM

B2: 14 (nucleic acid)
chain: rGrGrGrAfCrGrGfUrArGrGrArAfUfUfCfUfCrGfUfUfCfCfUrGrAfCrArGfCrAfUfUfUrGrArGrAfUrArGrAfUfUfUrArArAfCrArArAfCrGfCrAfCrAfUrArGrArArGrArGfCrGrGfCfCrGfC
modifications: aptamer
IC50 [2, 7]: 61 ± 53 nM

B3: 13 (nucleic acid)
chain: rGrGrGrAfCrGrGfUrArGrGrArAfUfUfCfCrGfCrArAfCfCrAfUfCfCfCrGfUrArAfCfUrAfUrGrGfUfUrArGrAfUrArGrArGfUfUrArArArArAfCfCrAfUrArGrArArGrArGfCrGrGfCfCrGfC
modifications: aptamer
IC50 [2, 7]: 58 ± 24 nM
